In this assay the target is polyclonal human IgG. As to the kind of experiment: Adsorption isotherm of peptoid affinity resins against polyclonal human IgG. Conditions: IgG in PBS, 30 minutes; for Kd: affinity constant from hyperbola fit of adsorption isotherm, peptoid conjugated to chromatographic resin, read-out: Kd × 10^−6. It is filed as binding. As to the method: The affinity for the peptoid-resin combinations was determined by measuring the adsorption isotherm of each resin against polyclonal human IgG (Pakimna et al., J Applied Sci., 12(11): 1136-1141, 2012). Briefly, 0.050 mL of 50% resin slurry was pipetted into 6 individual wells of a 96-well filter plate (0.45 micron, PVDF, Harvard Apparatus). The resin was washed with 2×250 μL PBS using a vacuum manifold. To an individual well, 0.25 mL of a human polyclonal IgG solution at different concentrations (10, 5, 2.5, 1.25, 0.625, and 0.3125 mg/mL) was added. The resin/IgG suspension was agitated gently on a rocking table for 30 minutes. The fluid was then collected via vacuum, and the resin was washed with 0.25 mL of PBS. The filtrate and wash were then analyzed by the BCA assay to determine the residual IgG concentration relative to the starting concentration of the solution.
The equilibrium concentrations were then used to determine the capacity of the resin at each IgG concentration using the following formula: q=Volumesample×(Initial Concentration−Equilibrium Concentration)/Volumeresin
A plot of q versus equilibrium concentration was generated and the data fit with a hyperbola to determine the affinity constant (Kd) and the maximum capacity (qmax) according to the below formula, where C=the equilibrium concentration of antibody in solution: q=qmax×C/(kd+C) Typical adsorption isotherm is shown in FIG. 2. Tabulated Kd and qmax data is found in Table 2.

[1] abbreviates: maximum capacity (qmax) of resin from hyperbola fit of adsorption isotherm.

*1 amine or outer side, *2 acyl side, *3 side chain or, on linkers, in order; H or OH if unused. Where a SMILES comes first, the peptide text is derived from it. [ ]: non-standard residue; d: D form. ξ: configuration not given here. Gly(N(CH2)2(3-indolyl)) = O=C(O)CNCCc1c[nH]c2ccccc12; NGly(CH2(3-pyridyl)) = O=C(O)CNCc1cccnc1; ξW = NC(Cc1c[nH]c2ccccc12)C(=O)O; Gly(N(CH2)3NH2) = NCCCNCC(=O)O; Cit = NC(=O)NCCC[CH](N)C(=O)O; Cysteamide = C(CS[*:3])N[*:1]; ξCit = NC(=O)NCCCC(N)C(=O)O; ξH = NC(Cc1c[nH]cn1)C(=O)O; Nphe = O=C(O)CNCc1ccccc1; NPrGly = CCCNCC(=O)O; ξV = CC(C)C(N)C(=O)O

As for `CCCN(CC(=O)NCCS)C(=O)CN(CCc1c[nH]c2ccccc12)C(=O)CNC(=O)C(CCCNC(N)=O)NC(=O)CN(CCc1c[nH]c2ccccc12)C(=O)[C@@H](N)Cc1c[nH]cn1` (stereo partly shown) [Ligand 12-65-2] (H-H[Gly(N(CH2)2(3-indolyl))][ξCit]G[Gly(N(CH2)2(3-indolyl))][NPrGly]-Cysteamide), the Kd (as a rule, the constant that tells how readily two partners part at equilibrium) stood at 15 µM. Besides, the “Qmax” value under setting [1] was 53 mg/mL.
As to `CCCN(CC(=O)NCCS)C(=O)CN(CCc1c[nH]c2ccccc12)C(=O)CNC(=O)C(CCCNC(N)=O)NC(=O)CN(CCc1c[nH]c2ccccc12)C(=O)CNCc1cccnc1` (stereo not shown) [Ligand 12-65-1] (H-[NGly(CH2(3-pyridyl))][Gly(N(CH2)2(3-indolyl))][ξCit]G[Gly(N(CH2)2(3-indolyl))][NPrGly]-Cysteamide), the dissociation constant (Kd) was 7.9 µM. Also, the “Qmax” value under setting [1] came to 65 mg/mL.
For the molecule `NC(=O)NCCCC(N)C(=O)N(CC(=O)N(CCc1c[nH]c2ccccc12)CC(=O)N(CC(=O)NCCS)Cc1cccnc1)Cc1cccnc1` (stereo not shown) [Ligand 16-84-3] (H-[ξCit][NGly(CH2(3-pyridyl))][Gly(N(CH2)2(3-indolyl))][NGly(CH2(3-pyridyl))]-Cysteamide), the Kd was found to be 4.9 µM. Under setting [1], the “Qmax” value is 56 mg/mL.
`CC(C)C(NC(=O)CN(CCc1c[nH]c2ccccc12)C(=O)CNC(=O)CN(CCCN)C(=O)CN(CCc1c[nH]c2ccccc12)C(=O)CNCc1cccnc1)C(=O)NCCS` (stereo not shown) [Ligand 16-83-6] (H-[NGly(CH2(3-pyridyl))][Gly(N(CH2)2(3-indolyl))][Gly(N(CH2)3NH2)]G[Gly(N(CH2)2(3-indolyl))][ξV]-Cysteamide): the Kd is 4.6 µM. The “Qmax” value under setting [1] worked out at 56 mg/mL.
In the case of `NC(=O)NCCCC(NC(=O)CN(Cc1ccccc1)C(=O)CNCc1cccnc1)C(=O)NC(CCCNC(N)=O)C(=O)N(CC(=O)NCCS)Cc1cccnc1` (stereo not shown) [Ligand 12-65-8] (H-[NGly(CH2(3-pyridyl))][Nphe][Cit][Cit][NGly(CH2(3-pyridyl))]-Cysteamide; configuration not given here), the dissociation constant Kd amounted to 3.6 µM. In addition, the “Qmax (mg/mL)” value under setting [1] is 57. mg/mL.
Turning to `CCCN(CC(=O)NCCS)C(=O)C(Cc1c[nH]c2ccccc12)NC(=O)CNC(=O)CN(CCCN)C(=O)CN(CCc1c[nH]c2ccccc12)C(=O)CNCc1cccnc1` (stereo not shown) [Ligand 16-83-2] (H-[NGly(CH2(3-pyridyl))][Gly(N(CH2)2(3-indolyl))][Gly(N(CH2)3NH2)]G[ξW][NPrGly]-Cysteamide), the Kd came to 5.3 µM. The “Qmax” value under setting [1] stood at 49 mg/mL.
`NC(=O)NCCCC(N)C(=O)N(CCc1c[nH]c2ccccc12)CC(=O)N(CC(=O)N(CCc1c[nH]c2ccccc12)CC(=O)NCCS)Cc1cccnc1` (stereo not shown) [Ligand 16-83-9] (H-[ξCit][Gly(N(CH2)2(3-indolyl))][NGly(CH2(3-pyridyl))][Gly(N(CH2)2(3-indolyl))]-Cysteamide): the Kd turned out to be 4.9 µM. The “Qmax” value under setting [1] is given as 52 mg/mL.
As for `NC(=O)NCCCC(NC(=O)CN(CCc1c[nH]c2ccccc12)C(=O)CNCc1cccnc1)C(=O)N(CCc1c[nH]c2ccccc12)CC(=O)NCCS` (stereo not shown) [Ligand 16-81-4] (H-[NGly(CH2(3-pyridyl))][Gly(N(CH2)2(3-indolyl))][ξCit][Gly(N(CH2)2(3-indolyl))]-Cysteamide), the Kd stood at 2.9 µM. Moreover, under setting [1], the “Qmax” value was 64 mg/mL.
For the molecule `NC(=O)NCCCC(N)C(=O)N(CC(=O)N(CCc1c[nH]c2ccccc12)CC(=O)NCC(=O)N(CCc1c[nH]c2ccccc12)CC(=O)NCCS)Cc1cccnc1` (stereo not shown) [Ligand 12-65-5] (H-[ξCit][NGly(CH2(3-pyridyl))][Gly(N(CH2)2(3-indolyl))]G[Gly(N(CH2)2(3-indolyl))]-Cysteamide), the Kd was found to be 3.6 µM. Moreover, the “Qmax” value under setting [1] is recorded as 64 mg/mL.
Take `CCCN(CC(=O)NCCS)C(=O)CN(CCc1c[nH]c2ccccc12)C(=O)CNC(=O)CN(CCCN)C(=O)C(Cc1c[nH]c2ccccc12)NC(=O)CNCc1cccnc1` (stereo not shown) [Ligand 16-83-3] (H-[NGly(CH2(3-pyridyl))][ξW][Gly(N(CH2)3NH2)]G[Gly(N(CH2)2(3-indolyl))][NPrGly]-Cysteamide): the Kd came out at 7.3 µM. The “Qmax” value under setting [1] was 51 mg/mL.
Take `CCCN(CC(=O)NCCS)C(=O)CN(CCc1c[nH]c2ccccc12)C(=O)CNC(=O)CN(CCCN)C(=O)CN(CCc1c[nH]c2ccccc12)C(=O)C(N)Cc1c[nH]cn1` (stereo not shown) [Ligand 16-83-5] (H-[ξH][Gly(N(CH2)2(3-indolyl))][Gly(N(CH2)3NH2)]G[Gly(N(CH2)2(3-indolyl))][NPrGly]-Cysteamide): the Kd was 6.5 µM. The “Qmax” value under setting [1] was 62 mg/mL.
On to `NC(=O)NCCCC(NC(=O)CNCCc1c[nH]c2ccccc12)C(=O)N(CCc1c[nH]c2ccccc12)CC(=O)N(CC(=O)NCCS)Cc1cccnc1` (stereo not shown) [Ligand 16-83-7] (H-[Gly(N(CH2)2(3-indolyl))][ξCit][Gly(N(CH2)2(3-indolyl))][NGly(CH2(3-pyridyl))]-Cysteamide), for which the Kd came to 7.7 µM. Moreover, the “Qmax” value under setting [1] was 53 mg/mL.
Take `NC(=O)NCCCC(NC(=O)CN(Cc1ccccc1)C(=O)CNCc1cccnc1)C(=O)NC(CCCNC(N)=O)C(=O)NCCS` (stereo not shown) [Ligand 12-55-6] (H-[NGly(CH2(3-pyridyl))][Nphe][Cit][Cit]-Cysteamide; configuration not given here): the Kd was determined as 33 µM. Also, under setting [1], the “Qmax” value is recorded as 97 mg/mL.
As to `NC(=O)NCCCC(NC(=O)CN(CCc1c[nH]c2ccccc12)C(=O)CNCc1cccnc1)C(=O)NC(CCCNC(N)=O)C(=O)NCCS` (stereo not shown) [Ligand 16-84-2], the Kd was determined as 6.5 µM. Besides, the “Qmax” value under setting [1] was 48 mg/mL.

Values taken from patent publication US11053282B2, “Peptoid affinity ligands” (MIKE-ANN, LLC, priority 2016, dated 2021).
